Assay [1] deals with AF-1 recombinant protein (human AR-NTD). Description: AF-1 STD NMR binding assay. As to conditions: 25 μM AF-1, 250 μM compound. The procedure: Binding of the exemplary compounds to human AR-NTD was performed using STD […] Nuclear Magnetic Resonance (STD NMR) analysis with purified AF-1 recombinant protein.
Binding of the exemplary compounds to human AR-NTD was performed using STD […] Nuclear Magnetic Resonance (STD NMR) analysis with purified Tau-5AF-1 recombinant protein. All NMR spectroscopy experiments were performed on a Bruker Avance III 600 MHz spectrometer. NMR samples contain 25 μM AF-1 and 250 μM compound, and were diluted by PBS (pH 7.4, 60% D20) buffer to 500 μL. For the STD experiments, the standard Bruker stddiffgp19.3 pulse sequence was used with a saturation time of 2 s and a spectral width of 16 ppm with 128 scans. The on-resonance frequency was set to −0.4 ppm, while the off-resonance frequency was set to 33 ppm. Appropriate blank experiments, in the absence of protein or compound, were performed to test the lack of direct saturation to the compound protons.

For assay [2], the system named is DU145 cells. Put plainly: Cell proliferation assay (CellTiter-Glo), DU145. The format is cell-based. As to conditions: Homo sapiens, DU-145, 96 h; 4 days; read-out: DU145 IC50 AR-negative (cell proliferation). The procedure: (§1) To evaluate the effect of exemplary compounds on proliferation of AR/AR-V7-dependent prostate cancer cells, cell viability assay was performed in LNCaP (AR-positive), 22Rv1 (AR-positive; AR-V7 positive), VCaP (AR-positive; AR-V7 positive), and DU145 (AR-negative) cells, respectively.
(§2) LNCaP cells were seeded in charcoal stripped FBS/phenol red-free RPMI medium in 96-well plates for 24 h before pretreating for 1 h with test compounds prior to addition of 0.2 nM DHT for 4 days. 22Rv1 or VCaP cells were cultured in charcoal stripped FBS/phenol red-free RPMI medium for 24 h before addition of test compounds for 4 days. DU145 cells were seeded in complete medium for 24 h before addition of test compounds for 4 days. Cell proliferation was measured with CellTiter-Glo® Luminescent Cell Viability Assay (Promega). In LNCaP cells, DHT-dependent cell growth is calculated by measuring the difference between vehicle control (DMSO) cells treated with or without 0.2 nM DHT. The IC50 values were determined using the four parameter fit via GraphPad Prism graphing software.

Assay [3] deals with LNCaP cells. Put plainly: Cell proliferation assay (CellTiter-Glo), LNCaP. The format is cell-based. As to conditions: Homo sapiens, 96 h, 0.2 nM DHT, 4 days, read-out: LNCaP IC50 AR-positive (cell proliferation). The method, then:
as §1, §2

For assay [4], the target named is T1, AR (Homo sapiens, UniProt P10275).
T1 sequence (P10275 1-920 T878A): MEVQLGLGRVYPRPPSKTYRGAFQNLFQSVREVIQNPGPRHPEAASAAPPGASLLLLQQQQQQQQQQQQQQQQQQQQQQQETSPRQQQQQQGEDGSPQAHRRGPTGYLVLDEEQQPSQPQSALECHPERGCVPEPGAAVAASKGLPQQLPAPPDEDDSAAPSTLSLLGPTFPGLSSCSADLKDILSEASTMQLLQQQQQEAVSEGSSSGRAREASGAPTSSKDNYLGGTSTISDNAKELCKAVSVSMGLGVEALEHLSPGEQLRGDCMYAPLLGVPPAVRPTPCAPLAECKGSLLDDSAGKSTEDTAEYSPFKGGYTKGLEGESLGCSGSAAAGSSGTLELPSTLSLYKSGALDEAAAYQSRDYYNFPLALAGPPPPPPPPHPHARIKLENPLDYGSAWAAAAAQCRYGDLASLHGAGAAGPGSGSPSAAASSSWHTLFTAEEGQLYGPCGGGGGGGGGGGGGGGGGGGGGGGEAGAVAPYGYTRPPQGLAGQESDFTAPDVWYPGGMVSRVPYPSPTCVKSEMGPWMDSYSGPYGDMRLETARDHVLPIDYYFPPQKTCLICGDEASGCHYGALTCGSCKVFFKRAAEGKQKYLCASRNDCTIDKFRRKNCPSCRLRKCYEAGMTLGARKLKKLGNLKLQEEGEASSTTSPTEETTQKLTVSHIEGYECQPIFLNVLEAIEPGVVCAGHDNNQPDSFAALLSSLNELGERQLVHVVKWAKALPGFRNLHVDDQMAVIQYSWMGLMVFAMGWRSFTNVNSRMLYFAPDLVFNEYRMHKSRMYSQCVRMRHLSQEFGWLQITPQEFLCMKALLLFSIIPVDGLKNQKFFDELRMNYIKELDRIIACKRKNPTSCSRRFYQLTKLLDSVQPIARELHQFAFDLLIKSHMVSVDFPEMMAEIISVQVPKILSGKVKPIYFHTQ
Description: ARE-luciferase reporter assay in LNCaP cells (DHT-induced). The format is cell-based. As to conditions: 1 nM DHT, 24 h, normalized to cell viability, read-out: LNCaP ARE-luc IC50. The procedure:
(§3) The ARE-luciferase reporter plasmid contains functional AREs (androgen response elements) to which AR binds in response to androgen to induce luciferase activity. LNCaP (Cobioer) cells were transiently transfected with the ARE-luciferase reporter in charcoal stripped FBS/phenol red-free RPMI medium prior to treatment for 24 hours. Then DMSO or test compounds with serial diluted concentrations were added one hour prior to the addition of DHT(1 nM). After 24 h of incubation with DHT, cells were lysed and luciferase activity was assayed using the ONE-Glo™ Luciferase Assay System (Promega) and measured using EnVision Multimode Plate Reader, according to manufacturer's instructions. Values were normalized to cell viability determined by CellTiter-Glo® Luminescent Cell Viability Assay Kit (Promega). […] GraphPad Prism graphing software was used to calculate IC50 values.

For assay [5], the target named is T2, AR V7 (Homo sapiens, UniProt P10275).
T2 sequence (P10275 1-644 isoform P10275-3): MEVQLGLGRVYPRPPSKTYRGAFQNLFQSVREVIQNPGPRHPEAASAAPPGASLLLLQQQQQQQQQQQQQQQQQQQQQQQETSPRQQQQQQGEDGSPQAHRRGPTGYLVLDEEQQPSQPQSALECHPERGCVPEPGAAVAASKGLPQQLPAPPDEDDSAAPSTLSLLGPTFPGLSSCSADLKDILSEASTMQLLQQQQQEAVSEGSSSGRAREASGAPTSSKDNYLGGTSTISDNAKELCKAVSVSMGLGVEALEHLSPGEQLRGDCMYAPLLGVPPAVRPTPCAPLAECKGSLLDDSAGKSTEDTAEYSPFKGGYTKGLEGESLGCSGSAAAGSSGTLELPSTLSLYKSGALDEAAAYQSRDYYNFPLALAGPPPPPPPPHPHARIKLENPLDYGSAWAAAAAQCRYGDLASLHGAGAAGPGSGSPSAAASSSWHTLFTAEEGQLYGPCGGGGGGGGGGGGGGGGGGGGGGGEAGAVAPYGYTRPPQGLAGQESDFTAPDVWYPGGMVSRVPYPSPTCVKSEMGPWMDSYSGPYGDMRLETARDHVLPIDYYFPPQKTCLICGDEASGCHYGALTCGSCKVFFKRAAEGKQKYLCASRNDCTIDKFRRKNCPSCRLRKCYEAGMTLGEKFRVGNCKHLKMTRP
Put plainly: ARE-luciferase reporter assay in HEK293T cells cotransfected with AR-V7. The assay is classed as cell-based. Further details: host or cells: HEK293T. As to conditions: HEK293T cotransfected with AR-V7, hormone-starved, 24 h; read-out: HEK293T(V7) ARE-luc IC50. The method, then: as §3
(§4) To evaluate the transcriptional activity of AR-V7, HEK293T(Cobioer) cells were transiently cotransfected with an expression vector for AR-V7 and the ARE-luciferase reporter in hormone-starved conditions. For 22Rv1(Cobioer) prostate cancer cell line, which expresses endogenous AR-V7, ARE-luciferase reporter was transiently transfected in hormone-starved conditions. 24 h after transfection, DMSO or test compounds with serial diluted concentrations were added for additional 24 h incubation. Reporter activity was detected and normalized by cell viability as described above. Treatments were normalized to DMSO control activity, and IC50 values were further determined via GraphPad Prism graphing software.

The target of assay [6] is T2, AR V7. Put plainly: ARE-luciferase reporter assay in 22Rv1 cells (endogenous AR-V7). The format is cell-based. Further details: 22Rv1(Cobioer) prostate cancer cell line, which expresses endogenous AR-V7; host or cells: 22Rv1. As to conditions: 22Rv1, hormone-starved, 24 h; read-out: 22Rv1 ARE-luc IC50. The method, then: as §3, §4
The subject of assay [7] is 22Rv1 cells. Description: Cell proliferation assay (CellTiter-Glo), 22Rv1. The format is cell-based. As to conditions: Homo sapiens, 22Rv1, 96 h; 4 days; read-out: 22Rv1 IC50 AR-positive; AR-V7 positive (cell proliferation). The procedure: as §1, §2
The test system of assay [8] is VCaP cells. Description: Cell proliferation assay (CellTiter-Glo), VCaP. The format is cell-based. As to conditions: Homo sapiens, 96 h, 4 days, read-out: VCaP IC50 AR-positive, AR-V7 positive (cell proliferation). The procedure: as §1, §2
Assay [9] has as its system AR or AR-V7 downstream target genes. Put plainly: AR/AR-V7 target gene qPCR assay in 22Rv1 cells. The format is cell-based, human. As to conditions: 22Rv1, 48 h, RT-qPCR. The procedure:
To evaluate the effect of exemplary compounds on mRNA expression of AR or AR-V7 downstream target genes, real-time quantitative PCR measurements were performed in prostate cancer cell line 22Rv1 expressing both AR and AR-V7.
22Rv1 cells were cultured in charcoal stripped FBS/phenol red-free RPMI medium for 24 h, and then treated with DMSO or test compounds for additional 48 h prior to RT-qPCR. Briefly, RNA was isolated from cells using RNeasy Mini Kit (Qiagen) following the manufacturer's protocol. RNA was reverse transcribed and subjected to qPCR using PowerUp™ SYBR™ Green Master Mix (Applied Biosystems). The relative quantity of the target genes was calculated using the ΔΔCt method by comparing Ct of the target genes and mean Ct of the housekeeping gene GAPDH.

Molecules are shown by their SMILES. pIC50: −log10 of the molar value. Entries after “also recorded” stand apart in the source; their conditions may differ.

For `CC(C)(c1ccc(OCc2ccnc(N=S3(=O)CCNCC3)n2)cc1)c1cc(Cl)c(OCCO)c(C#N)c1` [Compound 62, 3-chloro-2-(2-hydroxyethoxy)-5-(2-(4-((2-((1-oxido-1λ^6-thiomorpholin-1-ylidene)amino)pyrimidin-4-yl)methoxy)phenyl)propan-2-yl)benzonitrile], in assay [1], the “binding to AF-1 (STD difference spectrum)” value is listed as “confirmed the binding; also recorded: binds to AF-1”.
Take `CC(C)(c1ccc(OCc2ccnc(N=S3(=O)CCCC3)n2)cc1)c1cc(Cl)c(OCCCl)c(C#N)c1` [Compound 2, 3-chloro-2-(2-chloroethoxy)-5-(2-(4-((2-((1-oxidotetrahydro-1λ^6-thiophen-1-ylidene)amino)pyrimidin-4-yl)methoxy)phenyl)propan-2-yl) benzonitrile]: the pIC50 was below 4.70 in assay [2]; 6.28 in assay [3]; 5.55 in assay [4]; 5.64 in assay [5]; 5.36 in [6]; 5.56 in assay [7]. Besides, the pIC50 in assay [8] was 5.06. Besides, the “mRNA expression of target genes of either AR or AR-V7” value in assay [9] is on record as “inhibited mRNA expression”.

The values above are taken from US20240150301A1, “METHODS OF MODULATING ANDROGEN RECEPTOR CONDENSATES” (ETERN BIOPHARMA (SHANGHAI) CO., LTD., priority 2021, published 2024).
